Laboratory results: patent US9487490B2, “3-cyclohexenyl and cyclohexyl substituted indole and indazole compounds as RORgammaT inhibitors and uses thereof” (Merck Sharp & Dohme Corp., priority 2012, dated 2016)

biological target: human RORgammaT-Ligand Binding Domain (LBD) (Homo sapiens (Human), UniProt P51449); assay: RORγ-Ligand Binding Domain TR-FRET assay (co-activator peptide SRC1_2 recruitment); assay type: biochemical; details: HIS-tagged RORγ-LBD 3 nM, biotinylated SRC1 LXXLL peptide 100 nM, incubated overnight at 4° C., 665 nm/615 nm signal quotient; read-out: Fret IC50
Sequence (P51449 269-508): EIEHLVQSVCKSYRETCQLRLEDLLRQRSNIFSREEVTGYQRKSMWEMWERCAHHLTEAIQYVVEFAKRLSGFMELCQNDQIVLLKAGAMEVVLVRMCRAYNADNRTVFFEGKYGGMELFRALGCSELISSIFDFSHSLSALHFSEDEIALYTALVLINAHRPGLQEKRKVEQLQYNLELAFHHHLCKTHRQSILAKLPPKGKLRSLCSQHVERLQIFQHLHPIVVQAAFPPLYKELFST
Source text: Activation of RORgammaT activity can be measured using, e.g., biochemical TR-FRET assay. In such an assay, interaction of cofactor-derived peptides with human RORgammaT-Ligand Binding Domain (LBD) can be measured.
To identify novel antagonists of RORgammaT, an assay was developed which employs the interaction of RORgammaT with its co-activator peptide SRC1_2. […] The RORγ-Ligand Binding Domain TR-FRET Assay was run according to the following protocol.
HIS-tagged RORγ-LBD protein was expressed in SF9 cells using a baculovirus expression system. The RORγ-LBD protein was purified by glutathione sepharose chromatography. Separately, SF9 cells not expressing any recombinant protein were lysed and the lysate was added to the purified RORγ-LBD at 0.25 μl lysate (from 10,000 SF9 cells)/nM purified protein. The mixture was then diluted in assay buffer (50 mM Tris pH 7.0, 50 mM KCl, 1 mM EDTA, 0.1 mM DTT) to obtain RORγ-LBD final concentration of 3 nM in 384-well assay plate.
Compounds to be tested were injected to the assay plate using Acoustic Droplet Ejection technology by Echo 550 liquid handler (Labcyte, Calif.).

Row | Structure (SMILES) | IC50 [nM]
1 | C[C@@H]1CN(C(=O)c2ccc3c(C4=CCC(C(=O)O)CC4)nn(C(=O)c4c(Cl)cccc4C(F)(F)F)c3c2)C[C@H](C)O1 (stereo partly drawn) [Example 4M, 4-(1-(2-chloro-6-(trifluoromethyl)benzoyl)-6-((2R,6S)-2,6-dimethylmorpholine-4-carbonyl)-1H-indazol-3-yl)cyclohex-3-enecarboxylic acid] | 21
2 | CN1CCN(C(=O)c2ccc3c(C4=CCC(C(=O)O)CC4)nn(C(=O)c4c(Cl)cccc4C(F)(F)F)c3c2)CC1=O (stereo not shown) [Example 4N, 4-(1-(2-chloro-6-(trifluoromethyl)benzoyl)-6-(4-methyl-3-oxopiperazine-1-carbonyl)-1H-indazol-3-yl)cyclohex-3-enecarboxylic acid] | 3
3 | C[C@H]1COCCN1C(=O)c1ccc2c(C3=CCC(C(=O)O)CC3)nn(C(=O)c3c(Cl)cccc3C(F)(F)F)c2c1 (stereo partly drawn) [Example 4O, 4-(1-(2-chloro-6-(trifluoromethyl)benzoyl)-6-((S)-3-methylmorpholinc-4-carbonyl)-1H-indazol-3-yl)cyclohex-3-enecarboxylic acid] | 308
4 | CN(C(=O)c1ccc2c(C3=CCC(C(=O)O)CC3)nn(C(=O)c3c(Cl)cccc3C(F)(F)F)c2c1)C1CCOCC1 (stereo not shown) [Example 4P, 4-(1-(2-chloro-6-(trifluoromethyl)benzoyl)-6-(methyl(tetrahydro-2H-pyran-4-yl)carbamoyl)-1H-indazol-3-yl)cyclohex-3-enecarboxylic acid] | 41
5 | C[C@@H]1COCCN1C(=O)c1ccc2c(C3=CCC(C(=O)O)CC3)nn(C(=O)c3c(Cl)cccc3C(F)(F)F)c2c1 (stereo partly drawn) [Example 4Q, 4-(1-(2-chloro-6-(trifluoromethyl)benzoyl)-6-((R)-3-methylmorpholine-4-carbonyl)-1H-indazol-3-yl)cyclohex-3-enecarboxylic acid] | 380
6 | C[C@H]1CN(C(=O)c2ccc3c(C4=CCC(C(=O)O)CC4)nn(C(=O)c4c(Cl)cccc4C(F)(F)F)c3c2)CCO1 (stereo partly drawn) [Example 4R, 4-(1-(2-chloro-6-(trifluoromethyl)benzoyl)-6-((S)-2-methylmorpholine-4-carbonyl)-1H-indazol-3-yl)cyclohex-3-enecarboxylic acid] | 21
7 | CN(CCO)C(=O)c1ccc2c(C3=CCC(C(=O)O)CC3)nn(C(=O)c3c(Cl)cccc3C(F)(F)F)c2c1 (stereo not shown) [Example 4S, 4-(1-(2-chloro-6-(trifluoromethyl)benzoyl)-6-((2-hydroxyethyl)(methyl)carbamoyl)-1H-indazol-3-yl)cyclohex-3-enecarboxylic acid] | 40
8 | CC(C)NC(=O)c1ccc2c(C3=CCC(C(=O)O)CC3)nn(C(=O)c3c(Cl)cccc3C(F)(F)F)c2c1 (stereo not shown) [Example 4T, 4-(1-(2-chloro-6-(trifluoromethyl)benzoyl)-6-(isopropylcarbamoyl)-1H-indazol-3-yl)cyclohex-3-enecarboxylic acid] | 1120
9 | CC(C)N(C)C(=O)c1ccc2c(C3=CCC(C(=O)O)CC3)nn(C(=O)c3c(Cl)cccc3C(F)(F)F)c2c1 (stereo not shown) [Example 4U, 4-(1-(2-chloro-6-(trifluoromethyl)benzoyl)-6-(isopropyl(methyl)carbamoyl)-1H-indazol-3-yl)cyclohex-3-enecarboxylic acid] | 164
10 | COCCN(C)C(=O)c1ccc2c(C3=CCC(C(=O)O)CC3)nn(C(=O)c3c(Cl)cccc3C(F)(F)F)c2c1 (stereo not shown) [Example 4V, 4-(1-(2-chloro-6-(trifluoromethyl)benzoyl)-6-((2-methoxyethyl)(methyl)carbamoyl)-1H-indazol-3-yl)cyclohex-3-enecarboxylic acid] | 31
11 | O=C(O)C1CC=C(c2nn(C(=O)c3c(Cl)cccc3C(F)(F)F)c3cc(C(=O)N4CC(O)C4)ccc23)CC1 (stereo not shown) [Example 4W, 4-(1-(2-chloro-6-(trifluoromethyl)benzoyl)-6-(3-hydroxyazetidine-1-carbonyl)-1H-indazol-3-yl)cyclohex-3-enecarboxylic acid] | 3
12 | O=C(O)C1CC=C(c2nn(C(=O)c3c(Cl)cccc3C(F)(F)F)c3cc(C(=O)N4CC(F)C4)ccc23)CC1 (stereo not shown) [Example 4X, 4-(1-(2-chloro-6-(trifluoromethyl)benzoyl)-6-(3-fluoroazetidine-1-carbonyl)-1H-indazol-3-yl)cyclohex-3-enecarboxylic acid] | 3
13 | O=C(O)C1CC=C(c2nn(C(=O)c3c(Cl)cccc3C(F)(F)F)c3cc(C(=O)N4CCCCC4)ccc23)CC1 (stereo not shown) [Example 4Y, 4-(1-(2-chloro-6-(trifluoromethyl)benzoyl)-6-(piperidine-1-carbonyl)-1H-indazol-3-yl)cyclohex-3-enecarboxylic acid] | 159
14 | CNCC(CO)OC(=O)c1ccc2c(C3=CCC(C(=O)O)CC3)nn(C(=O)c3c(Cl)cccc3C(F)(F)F)c2c1 (stereo not shown) [Example 4Z, 4-(1-(2-chloro-6-(trifluoromethyl)benzoyl)-6-(((1-hydroxy-3-(methylamino)propan-2-yl)oxy)carbonyl)-1H-indazol-3-yl)cyclohex-3-enecarboxylic acid] | 258
15 | O=C(O)C1CC=C(c2cn(C(=O)c3c(Cl)cccc3C(F)(F)F)c3cccc(F)c23)CC1 (stereo not shown) [Example 5A, 4-(1-(2-chloro-6-(trifluoromethyl)benzoyl)-4-fluoro-1H-indol-3-yl)cyclohex-3-enecarboxylic acid] | 4

Further lines, results first:

Row | IC50 [nM] | Structure (SMILES)
16 | 2 | O=C(O)C1CCC(c2nn(C(=O)c3c(Cl)cccc3C(F)(F)F)c3cccc(F)c23)=CC1O (stereo not shown) [Example 6A, 4-(1-(2-chloro-6-(trifluoromethyl)benzoyl)-4-fluoro-1H-indazol-3-yl)-2-hydroxycyclohex-3-enecarboxylic acid]
17 | 15 | O=C(O)C1CC=C(c2nn(C(=O)c3c(Cl)cccc3C(F)(F)F)c3cccc(F)c23)CC1O (stereo not shown) [Example 6B, 4-(1-(2-chloro-6-(trifluoromethyl)benzoyl)-4-fluoro-1H-indazol-3-yl)-6-hydroxycyclohex-3-enecarboxylic acid]
18 | 1880 | CC1(c2nn(C(=O)c3c(Cl)cccc3C(F)(F)F)c3cccc(F)c23)CCC(C(=O)O)CC1 (stereo not shown) [Example 7A, 4-(1-(2-chloro-6-(trifluoromethyl)benzoyl)-4-fluoro-1H-indazol-3-yl)-4-methylcyclohexanecarboxylic acid]
19 | 663 | C[C@]1(c2nn(C(=O)c3c(Cl)cccc3C(F)(F)F)c3cccc(F)c32)CC[C@H](C(=O)O)CC1 [Example 7B, (trans)-4-(1-(2-chloro-6-(trifluoromethyl)benzoyl)-4-fluoro-1H-indazol-3-yl)-4-methyl cyclohexanecarboxylic acid]
20 | 872 | C[C@]1(c2nn(C(=O)c3c(Cl)cccc3C(F)(F)F)c3cccc(F)c32)CC[C@@H](C(=O)O)CC1 [Example 7C, (cis)-4-(1-(2-chloro-6-(trifluoromethyl)benzoyl)-4-fluoro-1H-indazol-3-yl)-4-methylcyclohexanecarboxylic acid]
21 | 50 | C[C@]1(C(=O)O)CC[C@H](c2nn(C(=O)c3c(Cl)cccc3C(F)(F)F)c3cccc(F)c32)CC1 [Example 9A, (trans)-4-(1-(2-chloro-6-(trifluoromethyl)benzoyl)-4-fluoro-1H-indazol-3-yl)-1-methylcyclohexanecarboxylic acid]
22 | 5020 | C[C@]1(C(=O)O)CC[C@@H](c2nn(C(=O)c3c(Cl)cccc3C(F)(F)F)c3cccc(F)c32)CC1 [Example 9B, (cis)-4-(1-(2-chloro-6-(trifluoromethyl)benzoyl)-4-fluoro-1H-indazol-3-yl)-1-methylcyclohexanecarboxylic acid]
23 | 207 | O=C(c1c(Cl)cccc1C(F)(F)F)n1nc([C@H]2CC[C@H](C(=O)O)CC2)c2ncccc21 [Example 11A, (trans)-4-(1-(2-chloro-6-(trifluoromethyl)benzoyl)-1H-pyrazolo[4,3-b]pyridin-3-yl)cyclohexanecarboxylic acid]
24 | 10000 | O=C(c1c(Cl)cccc1C(F)(F)F)n1nc([C@H]2CC[C@@H](C(=O)O)CC2)c2ncccc21 [Example 11B, (cis)-4-(1-(2-chloro-6-(trifluoromethyl)benzoyl)-1H-pyrazolo[4,3-b]pyridin-3-yl)cyclohexanecarboxylic acid]
25 | 2470 | O=C(O)C1CCC(O)(c2nn(C(=O)c3c(Cl)cccc3C(F)(F)F)c3cccc(F)c23)CC1 (stereo not shown) [Example 13A, 4-(1-(2-chloro-6-(trifluoromethyl)benzoyl)-4-fluoro-1H-indazol-3-yl)-4-hydroxycyclohexanecarboxylic acid]
